Data on 25 compounds can be found in US8202856B2 (Merck Serono SA, priority 2007, dated 2012).

One assay deals with S1P3 receptor (Homo sapiens, UniProt Q99500). Briefly: 35S-GTPγS binding, membranes from CHO cells expressing S1P3. Format: biochemical. Conditions: CHO cell membranes expressing S1P3. The method, then: Receptor binding assay: Membranes were prepared from CHO cells expressing S1P1 or S1P3 for use in ligand and 35S-GTPTS binding studies. Cells were suspended in 50 mM TRIS, pH 7.4, 2 mM EDTA, 250 mM Sucrose (buffer A) and 1× Complete protease inhibitor cocktail (Roche), and disrupted at 4° C. by nitrogen decompression using a cell disruption bomb (Parr Instrument). Following centrifugation at 1000 RPM for 10 min at 4° C., the supernatant was suspended in buffer A and centrifuged again at 19000 RPM for 60 min at 4° C. The pellet was then suspended in 10 mM HEPES, pH 7.4, 1 mM EDTA, 250 mM Sucrose (Buffer B), and 1× Complete EDTA-free protease inhibitor cocktail and homogenized using a potter. Membranes were flash frozen in liquid nitrogen and stored at −80° C. [33P]sphingosine 1-phosphate (3000 Ci/mmol; American Radiolabeled Chemicals, Inc.) was added to test compounds in DMSO. Membranes and WGA SPA beads (GE Healthcare) were added to give a final volume of 100 μl in 96-well plates with assay concentrations of […] [33P]sphingosine 1-phosphate (respectively for S1P1 or S1P3), 50 mM HEPES, pH 7.5, 5 mM MgCl2, 100 mM NaCl, 0.4% fatty acid-free BSA, 1-5 μg/well of proteins and 100 μg/well of WGA SPA beads. Binding was performed for 60 min at room temperature on a shaker and bound radioactivity was measured on a PerkinElmer 1450 MicroBeta counter. Specific binding was calculated by subtracting remaining radioactivity in the presence of 1000-fold excess of unlabeled S1P. Binding data were analyzed using the GraphPad Prism program.
Measurements of ^35S-GTPγS Binding: Membranes (1 to 10 μg protein) prepared as described above, were incubated in 96-well Scintiplates (PerkinElmer) with test compounds diluted in DMSO, in 180 μl of 20 mM HEPES, pH 7.4, 10 mM MgCl2, 2 μg/well Saponin, 0.2% fatty acid free BSA (Assay buffer), 140 mM NaCl and 1.7 μM GDP. The assay was initiated with the addition of 20 μl of 1.5 nM [35S]-GTPγS (1100 Ci/mmol; GE Healthcare) in assay buffer. After 60 min incubation at 30° C. on a shaker, plates were centrifuged for 10 min at 2000 RPM. Supernatant was discarded and membrane bound radioactivity was measured on a PerkinElmer 1450 MicroBeta counter. Triplicate samples were averaged and expressed as response relative to S1P activation in absence of compound (n=2).
On the technique in general: Binding of GTPγS marks nucleotide exchange on a G protein.

In the next assay the target is S1P1 receptor (Homo sapiens, UniProt P21453). Briefly: 35S-GTPγS binding, membranes from CHO cells expressing S1P1. Format: biochemical. The note with it: CHO cell membranes expressing S1P1. The procedure, abridged:
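Membranes (1–10 μg) from CHO cells expressing the receptor were incubated with compound in 20 mM HEPES pH 7.4, 10 mM MgCl2, 140 mM NaCl, 1.7 μM GDP, saponin and 0.2% BSA. [35S]GTPγS (added at 1.5 nM) was then bound for 60 min at 30 °C. Membrane-bound radioactivity, averaged over triplicates, is expressed relative to S1P activation (n=2).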

pEC50: −log10 of the molar value. Counter-ions that a name gives are not always drawn. Bounds are passed on as bounds.

S1P1 receptor, sequence (P21453 whole entry): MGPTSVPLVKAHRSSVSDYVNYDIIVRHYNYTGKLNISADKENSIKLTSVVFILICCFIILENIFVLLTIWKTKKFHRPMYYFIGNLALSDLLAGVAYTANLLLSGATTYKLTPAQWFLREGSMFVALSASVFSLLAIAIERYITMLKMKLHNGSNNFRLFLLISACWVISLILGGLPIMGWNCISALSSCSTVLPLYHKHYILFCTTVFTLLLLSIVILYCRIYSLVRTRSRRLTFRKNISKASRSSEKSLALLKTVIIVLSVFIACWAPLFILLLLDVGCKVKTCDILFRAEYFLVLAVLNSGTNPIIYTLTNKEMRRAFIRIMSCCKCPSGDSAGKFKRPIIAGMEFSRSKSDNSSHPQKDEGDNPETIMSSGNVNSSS
S1P3 receptor, sequence (Q99500 whole entry): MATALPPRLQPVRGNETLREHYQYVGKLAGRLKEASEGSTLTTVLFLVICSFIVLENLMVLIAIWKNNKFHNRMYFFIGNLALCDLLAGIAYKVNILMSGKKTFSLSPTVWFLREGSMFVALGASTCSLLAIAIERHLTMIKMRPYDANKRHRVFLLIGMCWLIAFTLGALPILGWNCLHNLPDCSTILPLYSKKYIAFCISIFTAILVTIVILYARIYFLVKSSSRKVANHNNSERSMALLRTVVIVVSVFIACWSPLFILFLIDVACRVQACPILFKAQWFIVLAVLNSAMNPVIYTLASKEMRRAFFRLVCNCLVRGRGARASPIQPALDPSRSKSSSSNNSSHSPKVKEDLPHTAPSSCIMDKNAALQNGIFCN

With `Fc1ccc(F)c(-c2noc(-c3nnn(-c4ccccc4F)c3-c3ccccn3)n2)c1` [Example 28, 2-[4-[3-(2,5-Difluorophenyl)-1,2,4-oxadiazole-5-yl]-1-(2-fluorophenyl)-1H-1,2,3-triazole-5-yl]pyridine], the negative-log EC50 (pEC50) is 5.14 on S1P3 receptor and 7.36 at S1P1 receptor.

Take `CCCCc1c(-c2nc(-c3ccccc3F)no2)nnn1-c1ccccc1F` [Example 16, 5-5-[5-Butyl-1-(2-fluorophenyl)-1H-1,2,3-triazole-4-yl]-3-(2-fluorophenyl)-1,2,4-oxadiazole]: the negative logarithm of the EC50 (pEC50) on S1P3 receptor was 5.13; on S1P1 receptor it was 6.80.

On to `Cc1cccc(-c2noc(-c3nnn(-c4ccccc4F)c3-c3ccncc3)n2)c1` [Example 104, 4-{1-(2-fluorophenyl)-4-[3-(3-methylphenyl)-1,2,4-oxadiazol-5-yl]-1H-1,2,3-triazol-5-yl}pyridine], for which the pEC50 on S1P3 receptor is 6.18; on S1P1 receptor it was 7.85.

Turning to `Fc1ccc(F)c(-c2noc(-c3nnn(-c4ccccc4F)c3C3CC3)n2)c1` [Example 69, 5-[5-cyclopropyl-1-(2-fluorophenyl)-1H-1,2,3-triazol-4-yl]-3-(2,5-difluorophenyl)-1,2,4-oxadiazole], the negative-log EC50 (pEC50) is under 4.70 at S1P3 receptor and 6.94 at S1P1 receptor.

With `Fc1ccccc1-c1noc(-c2nnn(-c3ccccc3F)c2-c2ccccc2)n1` [Example 13, 3-(2-Fluorophenyl)-5-[1-(2-fluorophenyl)-5-phenyl-1H-1,2,3-triazole-4-yl]-1,2,4-oxadiazole], the pEC50 on S1P3 receptor was 6.31; at S1P1 receptor, 7.54.

As to `Cc1ccccc1-c1noc(-c2nnn(-c3ccccc3F)c2-c2ccncc2)n1` [Example 121, 4-{1-(2-fluorophenyl)-4-[3-(2-methylphenyl)-1,2,4-oxadiazol-5-yl]-1H-1,2,3-triazol-5-yl}pyridine], the values for the pEC50 at S1P3 receptor and on S1P1 receptor were under 4.70 and 7.89, respectively.

For the compound `Fc1ccc(F)c(-c2noc(-c3nnn(-c4ccccc4F)c3-c3ccncc3)n2)c1` [Example 31, 4-[4-[3-(2,5-Difluorophenyl)-1,2,4-oxadiazole-5-yl]-1-(2-fluorophenyl)-1H-1,2,3-triazole-5-yl]pyridine], the pEC50 on S1P3 receptor is 5.75; at S1P1 receptor, 8.15.

On to `COCc1c(-c2nc(-c3ccccc3F)no2)nnn1-c1ccccc1F`, for which the pEC50 at S1P3 receptor was under 4.52; on S1P1 receptor it was 6.68.

Take `OC1CCN(Cc2ccc(-c3noc(-c4nnn(-c5ccccc5F)c4-c4ccncc4)n3)cc2)C1` (centres unmarked) [Example 142, 1-(4-{5-[1-(2-fluorophenyl)-5-pyridin-4-yl-1H-1,2,3-triazol-4-yl]-1,2,4-oxadiazol-3-yl}benzyl)pyrrolidin-3-ol]: the values for the negative-log EC50 (pEC50) on S1P3 receptor and on S1P1 receptor were 6.08 and 7.89, respectively.

For the compound `COCc1c(-c2nc(-c3cccnc3)no2)nnn1-c1ccccc1F` [Example 47, 3-{5-[1-(2-fluorophenyl)-5-(methoxymethyl)-1H-1,2,3-triazol-4-yl]-1,2,4-oxadiazol-3-yl}pyridine], the values for the pEC50 on S1P3 receptor and on S1P1 receptor were under 4.70 and 6.17, respectively.

As to `Fc1ccc(-c2noc(-c3nnn(-c4ccccc4F)c3-c3ccncc3)n2)cc1F` [Example 97, 4-[4-[3-(3,4-difluorophenyl)-1,2,4-oxadiazol-5-yl]-1-(2-fluorophenyl)-1H-1,2,3-triazol-5-yl]pyridine], the pEC50 at S1P3 receptor was under 4.70; on S1P1 receptor, 7.22.

On to `COc1ccc(-c2noc(-c3nnn(-c4ccccc4F)c3-c3ccncc3)n2)cc1` [Example 48, 4-{1-(2-fluorophenyl)-4-[3-(4-methoxyphenyl)-1,2,4-oxadiazol-5-yl]-1H-1,2,3-triazol-5-yl}pyridine], for which the pEC50 on S1P3 receptor was 4.98; on S1P1 receptor it was 6.90.

As for `COC(=O)c1cccc(-c2noc(-c3nnn(-c4ccccc4F)c3-c3ccccc3)n2)c1` [Example 20, Methyl 3-{5-[1-(2-fluorophenyl)-5-phenyl-1H-1,2,3-triazole-4-yl]-1,2,4-oxadiazole-3-yl}benzoate], the pEC50 on S1P3 receptor is 5.07; on S1P1 receptor, 7.08.

Turning to `Fc1ccc(F)c(-c2noc(-c3nnn(-c4ccccc4F)c3CN3CCCC3)n2)c1` [Example 92, 3-(2,5-difluorophenyl)-5-[1-(2-fluorophenyl)-5-(pyrrolidin-1-ylmethyl)-1H-1,2,3-triazol-4-yl]-1,2,4-oxadiazole], the negative-log EC50 (pEC50) is under 4.70 at S1P3 receptor and 7.04 at S1P1 receptor.

Turning to `CS(=O)(=O)c1cccc(-c2noc(-c3nnn(-c4ccccc4F)c3-c3ccncc3)n2)c1` [Example 52, 4-(1-(2-fluorophenyl)-4-{3-[3-(methylsulfonyl)phenyl]-1,2,4-oxadiazol-5-yl}-1H-1,2,3-triazol-5-yl)pyridine], the negative-log EC50 (pEC50) on S1P3 receptor is under 4.70; on S1P1 receptor, 7.48.

As to `COCCc1c(-c2nc(-c3cccnc3)no2)nnn1-c1ccccc1F` [Example 46, 3-{5-[1-(2-fluorophenyl)-5-(2-methoxyethyl)-1H-1,2,3-triazol-4-yl]-1,2,4-oxadiazol-3-yl}pyridine], the negative logarithm of the EC50 (pEC50) at S1P3 receptor is under 4.70; on S1P1 receptor it was 6.29.

Take `CCc1c(-c2nc(-c3ccccc3F)no2)nnn1-c1ccccc1F` [Example 6, 5-[5-Ethyl-1-(2-fluorophenyl)-1H-1,2,3-triazole-4-yl]-3-(2-fluorophenyl)-1,2,4-oxadiazole]: the negative logarithm of the EC50 (pEC50) at S1P3 receptor was under 4.52; on S1P1 receptor it was 6.25.

Regarding `COCCNCc1ccc(-c2noc(-c3nnn(-c4ccccc4F)c3-c3ccncc3)n2)cc1` [Example 114, N-(4-{5-[1-(2-fluorophenyl)-5-pyridin-4-yl-1H-1,2,3-triazol-4-yl]-1,2,4-oxadiazol-3-yl}benzyl)-2-methoxyethanamine], the negative-log EC50 (pEC50) on S1P3 receptor was 5.18; at S1P1 receptor, 7.30.

For the compound `NCc1ccc(-c2noc(-c3nnn(-c4ccccc4F)c3-c3ccncc3)n2)cc1` [Example 80, 1-(4-{5-[1-(2-fluorophenyl)-5-pyridin-4-yl-1H-1,2,3-triazol-4-yl]-1,2,4-oxadiazol-3-yl}phenyl)methanamine hydrochloride], the results for the negative-log EC50 (pEC50) on S1P3 receptor and at S1P1 receptor were 5.64 and 7.42, respectively.

Consider `O=C(O)C1CN(Cc2ccc(-c3noc(-c4nnn(-c5ccccc5F)c4-c4ccncc4)n3)cc2)C1` [Example 113, 1-(4-{5-[1-(2-fluorophenyl)-5-pyridin-4-yl-1H-1,2,3-triazol-4-yl]-1,2,4-oxadiazol-3-yl}benzyl)azetidine-3-carboxylic acid], for which the negative logarithm of the EC50 (pEC50) at S1P3 receptor is 5.86; at S1P1 receptor, 8.70.

Consider `Fc1ccccc1-n1nnc(-c2nc(-c3cccc(Cn4cncn4)c3)no2)c1-c1ccncc1` [Example 61, 4-(1-(2-fluorophenyl)-4-{3-[3-(1H-1,2,4-triazol-1-ylmethyl)phenyl]-1,2,4-oxadiazol-5-yl}-1H-1,2,3-triazol-5-yl)pyridine], for which the pEC50 at S1P3 receptor was under 4.70; on S1P1 receptor, 6.74.

Take `COCc1c(-c2nc(-c3ccccc3)no2)nnn1-c1ccccc1F` [Example 15, 5-[1-(2-Fluorophenyl)-5-(methoxymethyl)-1H-1,2,3-triazole-4-yl]-3-phenyl-1,2,4-oxadiazole]: the values for the pEC50 at S1P3 receptor and at S1P1 receptor were under 4.52 and 6.41, respectively.

On to `Fc1ccc(F)c(-c2noc(-c3nnn(-c4ccccc4F)c3C3CCCC3)n2)c1` [Example 77, 5-[5-cyclopentyl-1-(2-fluorophenyl)-1H-1,2,3-triazol-4-yl]-3-(2,5-difluorophenyl)-1,2,4-oxadiazole], for which the pEC50 was 7.48 at S1P3 receptor and 6.69 on S1P1 receptor.

For the compound `COc1ccccc1-c1noc(-c2nnn(-c3ccccc3F)c2-c2ccncc2)n1` [Example 40, 4-{1-(2-fluorophenyl)-4-[3-(2-methoxyphenyl)-1,2,4-oxadiazol-5-yl]-1H-1,2,3-triazol-5-yl}pyridine], the negative logarithm of the EC50 (pEC50) is under 4.70 on S1P3 receptor and 6.92 on S1P1 receptor.

`Fc1ccccc1-n1nnc(-c2nc(-c3ccc4[nH]ncc4c3)no2)c1-c1ccncc1` [Example 116, 5-{5-[1-(2-fluorophenyl)-5-pyridin-4-yl-1H-1,2,3-triazol-4-yl]-1,2,4-oxadiazol-3-yl}-1H-indazole]: the pEC50 at S1P3 receptor is 6.79; on S1P1 receptor it was 8.40.

A word on the pEC50: it is the EC50 on a negative log10 scale, so that one unit is a factor of ten. A low value points to a high EC50.
